Laboratory results from patent US20210113602A1, “USE OF 6-THIO-2'-DEOXYGUANOSINE (6-THIO-dG) TO TREAT MELANOMA” (The Board of Regents of the University of Texas System, priority 2018, published 2021).

What was measured:
Assay type in all cases: cell-based, human
[1] = tested on: NRAS mutant melanoma cells; experiment: Relative cell number, Crystal Violet assay; conditions: 6, 12 or 18 days; relative to DMSO
Experimental: Supplementary FIGS. 8a-d. NRAS mutant melanoma cells are sensitive to the telomere uncapping agent 6-thio-dG. NRAS^mut melanoma cells were treated with 6-thio-dG for 6, 12 or 18 days. (Supplementary FIG. 8a) Relative cell number was assessed by […] Violet assay and calculated relative to DMSO-treated cells. Data represent average of three independent experiments +/-SD. (Supplementary FIG. 8b) Representative pictures of cells treated with 6-thio-dG for the indicated days and stained with Crystal Violet. (Supplementary FIG. 8c) NRAS^mut cells were treated with 6-thio-dG for 7 days and telomere-induced foci (TIF) were determined by indirect immunofluorescence combined with fluorescence in situ hybridization (FISH). Cells were considered TIF-positive when for or more co-localizing foci of telomeres and γ-H2AX were found. (Supplementary FIG. 8d) Quantification of TIF assay. Cells were scored as TIF-positive when four or more γ-H2AX foci (green) were co-localizing with telomere foci (red). Data represent average of […]. P values were calculated by unpaired Student's t-test.

[2] = tested on: NRAS mutant melanoma cells; experiment: DNA damage, γH2AX staining; conditions: 1 μM for 7 days
Experimental: FIGS. 2a-h. […] (FIGS. 2a-c) NRASmut melanoma cells (FIG. 2a), BRAF-V600E/NRAS mutant cells derived from melanoma patients resistant to BRAF/MEK inhibitors (FIG. 2b), or non-transformed melanocytes and fibroblasts (FIG. 2c) were treated with 6-thio-dG for 7 days. Cell viability was measured by Alamar Blue assay and calculated relative to DMSO-treated cells. (FIG. 2d) NRASmut melanoma cells and non-transformed human fibroblasts were treated with 1 or 5 μM 6-thio-dG for 7 or 14 days. Cell death was assessed by PSVUe staining. Percent of apoptotic cells is shown. (FIG. 2e) Cells were treated with DMSO or 1 μM 6-thio-dG for 14 days and telomere length was assessed by Southern blotting of TRF. Mean TRF length expressed as kilobase pairs is indicated at the bottom. (FIGS. 2f-g) Cells were treated with 1 μM 6-thio-dG for 7 days. (FIG. 2f) ROS production was measured by H2DCFDA fluorescence and normalized to MSO treated cells. (FIG. 2g) DNA damage was assessed by γH2AX staining. Data represent average from three independent experiments±SEM. *p<0.05; **p<0.01; ***p<0.005 in unpaired Student's t-test. […] Tumor volume was measured and average tumor volume (n=4)±SEM was plotted vs. time.
(§1) DNA damage and telomere dysfunction assay (TIF). […] Mean fluorescence staining was quantified by flow cytometry. […]

[3] = tested on: detoxifying enzymes such as SOD2, GPX1 and UCP2; experiment: mRNA levels of detoxifying enzymes by qRT-PCR; conditions: 1 μM 6-thio-dG for 7 days
Experimental: FIGS. 3a-g. Telomere dysfunction enhances oxidative stress leading to upregulation of an antioxidant program. (FIGS. 3a-d) NRASmut melanoma cells were transduced with TERT shRNA (FIG. 3a, FIG. 3c) or treated with 1 μM 6-thio-dG for 7 days (FIG. 3b, FIG. 3d). mRNA levels of the indicated genes were quantified by qRT-PCR (FIG. 3a, FIG. 3b). Mitochondrial superoxide production was measured by MitoSox Red fluorescence (FIG. 3c, FIG. 3d) and expressed as fluorescence relative to vector or DMSO controls. (FIG. 3e) NRASmut melanoma cells were treated with 1 μM of 6-thio-dG for the indicated times and SOD2 protein levels measured by Western blotting. (FIG. 3f) SOD2 was silenced using shRNA. Transduced M93-047 cells were treated with DMSO or 1 μM of 6-thio-dG and cell death was assessed by Annexin V/PI straining. (FIG. 3g) M93-047 cells were transduced with a SOD2 lentiviral construct or empty vector control (pLX304). Transduced cells were treated with increasing doses (1, 2.5 and 5 μM) of 6-thio-dG for 7 days and cell death was assessed. Data represent average from three independent experiments±SEM. *p<0.05; **p<0.01; ***p<0.005 in unpaired Student's t-test.

[4] = tested on: NRAS mutant melanoma cells; experiment: Telomere dysfunction-induced foci (TIF) assay; conditions: 6-thio-dG for 7 days
Experimental: Supplementary FIGS. 6a-b. […] NRAS mutant melanoma cells WM3000 were transduced with TERT shRNA and treated with NAC […] for 7 days. (Supplementary FIG. 6a) TIFs were assessed by indirect immunofluorescence combined with fluorescence in situ hybridization (FISH). Representative images are shown (scale bar=10 μm). (Supplementary FIG. 6b) Quantification of TIF positive cells. Cells were scored as TIF positive when three or more y-H2AS foci (green) were co-localizing with telomere foci (red). Data represent average of thirteen fields imaged +/−SD.
Supplementary FIGS. 8a-d. NRAS mutant melanoma cells are sensitive to the telomere uncapping agent 6-thio-dG. NRAS^mut melanoma cells were treated with 6-thio-dG for 6, 12 or 18 days. (Supplementary FIG. 8a) Relative cell number was assessed by Cyrstal Violet assay and calculated relative to DMSO-treated cells. […] (Supplementary FIG. 8c) NRAS^mut cells were treated with 6-thio-dG for 7 days and telomere-induced foci (TIF) were determined by indirect immunofluorescence combined with fluorescence in situ hybridization (FISH). […] (Supplementary FIG. 8d) Quantification of TIF assay. Cells were scored as TIF-positive when four or more γ-H2AX foci (green) were co-localizing with telomere foci (red). […] P values were calculated by unpaired Student's t-test.
as §1

In the case of `Nc1nc2c(ncn2[C@H]2C[C@H](O)[C@@H](CO)O2)c(=S)[nH]1` [6-thio-dG, 6-thio-2′-deoxy-guanosine], the “relative cell number (sensitivity)” value [1] was “sensitive”, the γH2AX levels [2] was “increased levels” and the GPX1 expression [3] was “upregulation”. The SOD2 expression [3] was “upregulation”, the UCP2 expression [3] was “upregulation” and the TIFs [4] was “increased levels”.
